Patent publication US20060222671A1, “Dermatological compositions and salts for the treatment of dermatological diseases” (Astion Development A/S, priority 2005, published 2006)
“Also recorded” adds a separate entry of the source.

Key:
[1] = tested on: oxazolone induced ear inflammation in mice; assay: Oxazolone induced mouse ear oedema assay; type: in vivo; details: for % inhibition of ear swelling: 24 hours after challenge; for inhibition of the formation of ear oedema: Example 7: 500 μg/ear dissolved in 96% ethanol
Protocol: This screening method is commonly employed for screening and evaluation of anti-inflammatory drugs, in particular with respect to the inflammation seen in contact dermatitis. Betamethasone-17 valerate was used as the positive control. […] Betamethasone was administered topically in quantities of 20 μg/ear. Betamethasone was applied in the commercial form Celeston valerate® 0.1%. All groups were immunised with 20 μl oxazolone, 1.6% in ethanol 96% (w/v) on the left and the right ear. The ear thickness of all mice on both the left and right side was measured with an electronic measuring gauge. All groups were challenged with 20 μl oxazolone (1.6% in ethanol 96% (w/v)) on the left ear and the right ear. Vehicle (acetone) or test article solutions were administered 20 minutes before and 20 minutes after oxazolone challenge. 24 hours after oxazolone challenge the ear thickness of all mice was measured with an electronic measuring gauge. Mean thickness of the ears and standard deviations were calculated. Ear swelling was calculated as the difference between the ear thickness day 7 and day 8. […] Differences in ear swelling between the vehicle treated group and the other groups were tested for significance employing a non-parametric statistical method of analysis, the Mann-Whitney U test. The required level of significance was p<0.05. […] Both test articles were applied in a dose of 500 μg/ear and dissolved in 96% ethanol. Betamethasone, as the positive control was administered topically in quantities of 20 μg/ear.

Phosphodiesterase PDE IV = Phosphodiesterase PDE IV enzyme assay (MDS Pharma Service No. 154000); type: biochemical
Protocol: (§1) The enzyme assays were conducted by MSD Pharma Services.

[2] = biological target: T1, Protein Tyrosine Kinase, SYK (Homo sapiens, UniProt P43405); assay: Protein Tyrosine Kinase SYK enzyme assay (MDS Pharma Service No. 155761); type: biochemical
T1 construct: purchased MDS Pharma Services (contract assay) 155761
Protocol: as §1

[3] = biological target: T2, Protein Tyrosine Kinase, ZA70 (ZAP-70) (Homo sapiens, UniProt P43403); assay: Protein Tyrosine Kinase ZA70 (ZAP-70) enzyme assay (MDS Pharma Service No. 155987); type: biochemical
T2 construct: purchased MDS Pharma Services (contract assay) 155987
T2 sequence (P43403 1-619): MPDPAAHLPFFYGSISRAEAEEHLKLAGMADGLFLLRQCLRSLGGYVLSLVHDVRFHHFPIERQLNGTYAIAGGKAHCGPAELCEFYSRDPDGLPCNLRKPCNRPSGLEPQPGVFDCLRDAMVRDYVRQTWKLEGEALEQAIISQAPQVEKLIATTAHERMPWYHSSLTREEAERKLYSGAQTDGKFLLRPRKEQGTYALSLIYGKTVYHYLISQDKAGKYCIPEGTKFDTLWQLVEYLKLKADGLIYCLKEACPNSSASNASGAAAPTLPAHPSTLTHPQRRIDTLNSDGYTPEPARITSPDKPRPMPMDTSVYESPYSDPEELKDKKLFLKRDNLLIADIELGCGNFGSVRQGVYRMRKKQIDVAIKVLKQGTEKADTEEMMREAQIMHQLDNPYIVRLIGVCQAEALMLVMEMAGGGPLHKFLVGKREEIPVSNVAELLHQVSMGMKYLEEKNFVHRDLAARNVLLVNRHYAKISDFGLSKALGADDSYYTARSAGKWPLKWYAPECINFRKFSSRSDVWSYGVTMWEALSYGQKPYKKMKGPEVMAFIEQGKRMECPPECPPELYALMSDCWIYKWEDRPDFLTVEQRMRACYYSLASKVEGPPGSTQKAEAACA
Protocol: as §1

skin = details: in vivo; cited from earlier work
guinea pig skin [4] = details: in vivo
Protocol: Test for skin sensitization is carried out according to the Magnusson and Kligman method (J. Invest. Dermatol. 1969. 52, 268-276) and in accordance with O.E.C.D. Guideline No. 406 of Jul. 17th, 1992, and the test method B.6 of the 96/54 E.E.C Directive.
Albino guinea pigs of Dunkin-Hartley strain were exposed to the test item after an acclimatisation period of at least five days.
The Maximum Non Necrotizing Concentration (M.N.N.C.) was determined by injecting by intradermal route the following concentrations: 2.5%, 1.25%, 0.625%, 0.3125%, 0.1562% and 0.078% diluted in physiological saline solution.
Pre-Maximum Non Irritant Concentration (pre-M.N.I.C.) was determined by application of the test item under an occlusive dressing during 24 hours, at the following concentrations: 2.5%, 1.25%, 0.625%, 0.3125% diluted in physiological saline solution.
Maximum Non Irritant Concentration (M.N.I.C.) was determined by initially establishing an induction phase by intradermal injection with a physiological saline solution and by topical application of distilled water followed by a 18-day rest phase. In the challenge phase where the test item is under occlusive dressing for 24 hours, the test item was applied to the skin of the Albino guinea pigs at the following concentrations: 2.5%, 1.25%, 0.625%, 0.3125% diluted in physiological saline solution.

undamaged skin area = assay: Acute dermal irritation; type: in vivo; details: for cutaneous reactions (erythema and oedema): 0.5 mL patch
Protocol: The sample was applied at a dose of 0.5 mL, on an undamaged skin area of the right flank of each animal. The patch was secured in position with a strip of surgical adhesive tape.
On the left flank an untreated area served as the control.
The skin reactions were evaluated after 1 hour and then after 24, 48 and 72 hours following removal of the patch according to the following grading scale:
Erythema (0: No erythema, 1: Slight (barely perceptible) erythema, 2: Definite erythema, 3: Moderate to severe erythema, 4: Severe erythema (purple) with formation of eschars (deep lesions) preventing erythema from being grading).
Oedema (0: No oedema, 1: Very slight (barely perceptible) oedema, 2: Slight oedema (contour clearly defined), 3: Moderate oedema (thickness), 4: Severe oedema (thickness greater than 1 mm, surface larger than zone of application)

guinea pig skin [5] = details: in vivo; remark: listed apart in the source
Protocol: Test for photo toxicity is carried out to evaluate the risk of cutaneous reactions on the guinea pig following exposure to ultraviolet radiation.
Thirty minutes after the treatment, the animals were subjected to ultraviolet radiations (UV-B first and then UV-A).
The animals were irradiated with the irradiation source VLX 3W (Biotronic, Vilbert Lourmat) at the Maximal Non Erythemateous Dose (M.N.E.D) 7000 J/cm2 for UV-A and 150 mJ/cm2 for the UV-B.
A macroscopic evaluation of the cutaneous reactions (erythema and oedema) was conducted 24 and 48 hours after irradiation.

[6] = 25° C.; cited from earlier work
[7] = biological target: T3, anandamide hydrolase (a fatty acid amide hydrolase) (Homo sapiens, UniProt O00519); details: in neurons; cited from earlier work
T3 construct: host or cells: neurons
T3 sequence (O00519 1-579): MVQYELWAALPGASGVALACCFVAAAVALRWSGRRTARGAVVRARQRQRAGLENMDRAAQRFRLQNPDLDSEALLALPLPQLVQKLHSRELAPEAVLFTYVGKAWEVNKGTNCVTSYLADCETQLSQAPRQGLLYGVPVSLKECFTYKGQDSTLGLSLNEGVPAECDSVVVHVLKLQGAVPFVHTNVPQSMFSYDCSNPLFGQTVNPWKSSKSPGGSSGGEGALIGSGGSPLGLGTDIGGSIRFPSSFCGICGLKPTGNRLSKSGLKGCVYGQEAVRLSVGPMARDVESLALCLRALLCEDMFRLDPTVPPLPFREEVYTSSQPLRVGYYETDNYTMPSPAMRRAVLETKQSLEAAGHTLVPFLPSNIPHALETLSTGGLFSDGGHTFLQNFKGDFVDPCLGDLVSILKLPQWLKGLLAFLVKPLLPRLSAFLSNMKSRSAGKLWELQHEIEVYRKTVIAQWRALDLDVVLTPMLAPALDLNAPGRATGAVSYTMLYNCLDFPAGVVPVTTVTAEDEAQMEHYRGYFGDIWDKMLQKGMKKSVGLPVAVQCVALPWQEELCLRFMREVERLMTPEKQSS

NF-kappaB activation = details: in inflammatory cells; cited from earlier work
activated monocytes = details: cited from earlier work
[8] = tested on: inflammation following treatment with cryotherapy; details: topical; moderate to severe inflammation following cryotherapy; cited from earlier work
human skin inflammation = details: topical treatment; cited from earlier work
[9] = tested on: chronic stable plaque psoriasis; details: topical 1%; cited from earlier work
contact dermatitis = details: topically applied; cited from earlier work
[10] = Oxaprozin as the monoethanolamine salt
[11] = monoethanolamine salt 5% by weight in water

With `CCCCC(=O)O[C@]1(C(=O)CO)[C@@H](C)C[C@H]2[C@@H]3CCC4=CC(=O)C=C[C@]4(C)[C@@]3(F)[C@@H](O)C[C@@]21C` [Betamethasone 17-valerate] the “% inhibition of ear swelling” value ([1]; 20 μg/ear topical (Celeston valerate 0.1%)) was 66%.

With `CCCCOc1ccc(CC(=O)NO)cc1` [Bufexamac] the “inhibitory effect on the PDE-IV enzyme” value (Phosphodiesterase PDE IV) was “exhibits inhibitory effect”, the “inhibitory effect on Protein Tyrosine Kinase SYK” value [2] was “only exhibits inhibitory effect on the PDE-IV enzyme” and the “inhibitory effect on Protein Tyrosine Kinase ZAP-70” value [3] was “only exhibits inhibitory effect on the PDE-IV enzyme”. For the same compound, the “inhibition of the formation of ear oedema” value [1] was “did not inhibit the formation of ear oedema at all” and the cutaneous side effects (skin) was “reported to cause contact allergy; also recorded: major contact allergens”.

In the case of `O=C(O)Cc1ccccc1Nc1c(Cl)cccc1Cl` [Diclofenac], the cutaneous side effects (skin) is listed as “irritant-type contact dermatitis may develop”.

In the case of `CC(C(=O)O)c1cccc(C(=O)c2ccccc2)c1` (stereo not shown) [Ketoprofen], the cutaneous side effects (skin) is given as “major contact allergens”.

`O=C(O)CCc1nc(-c2ccccc2)c(-c2ccccc2)o1` [Monoethanolamine Oxaprozin] showed an IC50 (Phosphodiesterase PDE IV; [10]) of 22 µM, an IC50 [2, 10] of 28 µM and an IC50 [3, 10] of 38 µM. The “% inhibition of ear swelling” value ([1]; 250 μg/ear topical in acetone, 20 min before and after challenge) was 53%, the “% inhibition of ear swelling” value ([1]; 500 μg/ear topical in acetone, 20 min before and after challenge) was 77% and the “% inhibition of ear swelling” value ([1]; 1000 μg/ear topical in acetone, 20 min before and after challenge) was 95%. For the same compound, the “inhibition of ear swelling (in words)” value ([1]; 250-1000 μg/ear) was “dose dependent and highly significant inhibition of ear swelling”, the “inhibition of ear swelling compared with positive control” value ([1]; highest dose (1000 μg/ear) vs Betamethasone 17-valerate 20 μg/ear) was “significantly stronger than the inhibition obtained with Betamethasone 17-valerate” and the skin sensitization (guinea pig skin [4]) was “not causing sensitization reactions”.

For `O=C(O)CCc1nc(-c2ccccc2)c(-c2ccccc2)o1` [Oxaprozin, 4,5-diphenyl-2-oxazole-propionic acid], the “inhibition of the formation of ear oedema” value [1] was “statistically significant inhibition of the formation of ear oedema”, the “cutaneous reactions (erythema and oedema)” value (undamaged skin area; monoethanolamine salt 2.5% by weight in water, 1, 24, 48, 72 hours) was “no cutaneous reactions (erythema and oedema) were observed” and the reversibility of erythema (undamaged skin area; [11]) was “totally reversible between the 2nd and the 3rd day of the test”. For the same compound, the “cutaneous reactions (erythema and oedema)” value (undamaged skin area; [11]) was “only a slight erythema on the treated area at the reading time 1 hour”, the photo toxicity (guinea pig skin [5]) was “not phototoxic” and the solubility in water [6] was “about 1.7 mg/ml”. For the same compound, the “inhibition of anandamide hydrolase” value [7] was “inhibits”, the “inhibition of NF-kappaB activation” value (NF-kappaB activation) was “inhibits” and the “apoptosis of activated monocytes” value (activated monocytes) was “induces apoptosis of activated monocytes in a dose-dependent manner”.

For `CC(=O)Oc1ccccc1C(=O)O` [aspirin], the cutaneous side effects (skin) is listed as “may induce urticarial reactions”.

In the case of `CCC(=O)O[C@]1(C(=O)CCl)[C@@H](C)C[C@H]2[C@@H]3CCC4=CC(=O)C=C[C@]4(C)[C@@]3(F)[C@@H](O)C[C@@]21C` [clobetasol propionate], the “relief of erythema and oedema” value [8] is listed as “proved to have effect”.

For `CC(C(=O)O)c1ccc(-c2ccccc2)c(F)c1` (stereo not shown) [flubiprofen], the “effect on human skin inflammation” value (human skin inflammation) is listed as “reduces human skin inflammation”.

In the case of `COc1ccc2c(c1)c(CC(=O)O)c(C)n2C(=O)c1ccc(Cl)cc1` [indomethacin], the “relief of erythema and oedema” value [8] is given as “poor effect in relieving the erythema and oedema”, the “effect on chronic stable plaque psoriasis” value [9] is given as “no effect” and the “response in animal model of contact dermatitis” value (contact dermatitis) is given as “shown to respond”. For the same compound, the cutaneous side effects (skin) was “may induce urticarial reactions”.

For `CN1C(C(=O)Nc2ccccn2)=C(O)c2ccccc2S1(=O)=O` [piroxicam], the cutaneous side effects (skin) is listed as “can lead to phototoxic or photo allergic dermatitis”.
